Measurements as given in PubChem BioAssay (NCI).
“And” between values parts separate entries of the source, which are not always exact repeats. Equal values may be shown once.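 Values below derive from 48-hour exposures of cells grown in 96-well plates, with endpoints linearly interpolated between the two concentrations bracketing the appropriate inhibition level. At the GI50, growth is halved. Definition used: TGI = concentration required for complete inhibition of growth.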

What was measured:
Test in all cases: NCI tumour cell line growth inhibition, 48 h
[1] = tested on: DLD-1 colon
[2] = tested on: DMS 114 small cell lung
[3] = tested on: KM20L2 colon
[4] = tested on: M19-MEL melanoma
[5] = tested on: RXF-631 renal
[6] = tested on: HOP-18 NSCLC
[7] = tested on: LXFL 529 NSCLC
[8] = tested on: XF 498 CNS
[9] = tested on: MDA-N
[10] = tested on: P388 leukemia
[11] = tested on: P388/ADR leukemia
[12] = tested on: SN12K1 renal

SMILES | TGI [1] | TGI [2] | TGI [3] | TGI [4] | TGI [5] | TGI [6] | TGI [7] | TGI [8] | other results
CCCC(Sc1ccccc1)P(=O)(c1ccccc1)c1ccccc1 (stereo not drawn) | > 100 µM | > 100 µM | > 100 µM | > 100 µM | 94.7 µM | – | – | – | –
Cc1ccc(Sc2ccc(C)cc2[N+](=O)[O-])c([N+](=O)[O-])c1 | – | > 100 µM | > 100 µM | > 100 µM | – | > 100 µM | > 100 µM | > 100 µM | –
COC(=O)C(F)C(Br)C(=O)OC (stereo not drawn) | – | – | – | – | – | – | – | – | TGI [9]: 22.7 µM
Nc1nc(N)c(N=O)c(OCC2CCCCC2)n1 | – | – | – | – | – | – | – | – | TGI [9]: 67.4 µM
C1CCOC2(CCC3(CC2)OCCCCO3)OC1 | > 100 µM | > 100 µM | > 100 µM | > 100 µM | – | > 100 µM | > 100 µM | – | –
C=CCC(OCCOCC)c1cc(OCCOCC)ccc1OC (stereo not drawn) | – | – | – | > 100 µM | – | – | > 100 µM | > 100 µM | –
O=C1NC2C=CN(Cc3ccccc3)C=C2C(=O)N2CCCC12 (stereo not drawn) | > 100 µM | > 100 µM | > 100 µM | > 100 µM | > 100 µM | > 100 µM | > 100 µM | > 100 µM | –
C[C@@H](NC1CCC[C@H]1O)c1ccccc1 (stereo partly drawn) | > 100 µM | > 100 µM | > 100 µM | > 100 µM | – | > 100 µM | > 100 µM | > 100 µM | –
COc1cc(/C=C/C(=O)c2sc(NNC(C)=O)nc2C)ccc1O | > 100 µM | > 100 µM | > 100 µM | – | > 100 µM | > 100 µM | – | – | –
COc1ccc(/C=C2\CCC(CN(C)C)C2=O)cc1OC (stereo not drawn) | 8.83 µM | 34.3 µM | 32.3 µM | 24.4 µM | 16.3 µM | 35.1 µM | 6.7 µM | 26.3 µM | –
CC12CC(OC(=O)[C@]1(C)O)[C@@H]([C@]1(O)CC[C@H]3[C@@H]4C[C@H]5O[C@]56[C@@H](O)C=CC(=O)[C@]6(C)[C@H]4CC[C@@]31C)C2 (stereo partly drawn) | – | – | – | – | – | – | – | – | TGI [9]: 26.9 µM
N.N.NCCCCCCN.O=C([O-])CC(=O)[O-].O=C([O-])CC(=O)[O-].[Pt+4].[Pt+4] | > 100 µM | – | > 100 µM | – | – | > 100 µM | > 100 µM | – | GI50 [1]: > 100 µM; GI50 [6]: > 100 µM; GI50 [3]: > 100 µM; GI50 [7]: > 100 µM
COC(=O)C1=C(C(=O)OC)SC(=C(N=Nc2ccccc2)c2ccccc2)S1 | > 100 µM | – | > 100 µM | > 100 µM | > 100 µM | > 100 µM | > 100 µM | – | –
O=C1CCC2(c3ccccc3)Nc3ncccc3N12 (stereo not drawn) | > 100 µM | > 100 µM | > 100 µM | > 100 µM | – | – | > 100 µM | > 100 µM | –
c1ccc(CSc2nnc3c4ccccc4c4ccccc4c3n2)cc1 | – | – | – | – | – | – | – | – | TGI [9]: > 100 µM
CCC(/C=C/c1ccccc1)=N\Nc1ccc(Cl)c(Cl)c1 | – | – | – | – | – | – | – | – | TGI [9]: > 100 µM
C=CC1C(OC2OC(CO)C(O)C(O)C2O)OC=C(C(=O)OC)C1CC=O (stereo not drawn) | > 100 µM | – | > 100 µM | > 100 µM | > 100 µM | > 100 µM | > 100 µM | – | –
CCOC(=O)c1nc(-c2ccccc2)oc1OCC | > 100 µM | > 100 µM | > 100 µM | > 100 µM | – | > 100 µM | > 100 µM | > 100 µM | –

SMILES | TGI [1] | TGI [2] | TGI [3] | TGI [4] | TGI [5] | TGI [6] | TGI [7] | TGI [8] | other results
C/C=C/C=C/CCCCCCCCCCCCCC1(OC)C=CC(CC(=O)OC)OO1 (stereo not drawn) | 23.8 µM | – | 3.51 µM | 24.1 µM | 29.1 µM | – | 16.7 µM | 15.8 µM | GI50 [1]: 5.79 µM; GI50 [3]: 1.89 µM; GI50 [7]: 4.7 µM; GI50 [5]: 10.8 µM; GI50 [8]: 6.59 µM
CCOC(=O)C1=C(Nc2cccc3ccccc23)OC/C1=N\NC(=O)c1ccccc1O | 81.5 µM | 31.6 µM | 90.8 µM | > 100 µM | > 100 µM | 83.7 µM | > 100 µM | 30.7 µM | –
O=C(CCc1cc(-c2ccccc2)nc(=S)[nH]1)Nc1ccccc1[N+](=O)[O-] | – | > 100 µM | > 100 µM | > 100 µM | > 100 µM | > 100 µM | > 100 µM | 91.5 µM | –
CCC1CCc2c(OC)ccc(OCC(=O)O)c2C1=O (stereo not drawn) | > 100 µM | > 100 µM | – | > 100 µM | – | – | > 100 µM | > 100 µM | –
COc1cc(C)c(O)c(C(=O)O)c1 | > 100 µM | > 100 µM | > 100 µM | > 100 µM | – | > 100 µM | > 100 µM | > 100 µM | –
OCC1OC(n2cnc3c(=S)nc[nH]c32)C(O)C1O (stereo not drawn) | – | 2490 µM | > 2500 µM | > 2500 µM | – | > 2500 µM | – | > 1400 µM | TGI [9]: > 2500 µM; TGI [10]: > 2500 µM; TGI [11]: > 2500 µM; TGI [12]: > 2500 µM
CC1CCC(C(C)C)C(O[C@@H]2OC(=O)C[C@@H]2Sc2ccccc2)C1 (stereo partly drawn) | > 100 µM | 46.9 µM | – | 62.1 µM | 69.8 µM | – | 46.1 µM | – | –
O=C1c2ccccc2CC1C1(O)C(=O)Nc2ccccc21 (stereo not drawn) | > 100 µM | > 100 µM | > 100 µM | > 100 µM | > 100 µM | – | > 100 µM | > 100 µM | –
CSC1(SC2=NCCN2)SC2(NCCN2)S1 | – | – | – | – | – | – | – | – | TGI [9]: 49.1 µM
CC(=O)Nc1ccc(/C=C/C(=O)c2sc(-c3nc(C)c(C(=O)/C=C/c4ccc(NC(C)=O)cc4)s3)nc2C)cc1 | > 100 µM | > 100 µM | > 100 µM | > 100 µM | > 100 µM | – | > 100 µM | > 100 µM | –
CC(=O)NC1CC2Oc3ccc(C)cc3C(C)(O2)C1O (stereo not drawn) | > 100 µM | > 100 µM | – | > 100 µM | – | > 100 µM | – | > 100 µM | –
Clc1nc(Cl)c(-c2ccccc2)c(Cl)n1 | – | – | – | – | – | – | – | – | TGI [9]: 6.67 µM
CS/C(=N\c1nccs1)NC(=O)c1cccc(Cl)c1 | > 100 µM | > 100 µM | > 100 µM | > 100 µM | > 100 µM | > 100 µM | > 100 µM | – | –
COC(=O)c1cc(-c2cccn2C)c2c(c1C(=O)OC)c1ccccc1n2C | > 100 µM | > 100 µM | – | – | > 100 µM | > 100 µM | > 100 µM | > 100 µM | –
COC(=O)C1=C(O)c2cc3c(cc2[C@H](c2cc(OC)c(OC)c(OC)c2)C1C(=O)OC)OCO3 (stereo partly drawn) | > 100 µM | 68.8 µM | > 100 µM | > 100 µM | > 100 µM | 89.4 µM | > 100 µM | 70 µM | –
c1ccc(P(CCP(CCP(c2ccccc2)c2ccccc2)c2ccccc2)CCP(c2ccccc2)c2ccccc2)cc1 (stereo not drawn) | – | – | – | – | – | – | – | – | GI50 [9]: > 10 µM and 3.35 µM; TGI [9]: > 10 µM
O=c1cc(N=Nc2ccc(O)cc2)[nH]c(=O)[nH]1 | – | – | – | – | – | – | – | – | TGI [9]: > 100 µM
